Laboratory results: patent US9381172B2, “Small molecule choline kinase inhibitors, screening assays, and methods for treatment of neoplastic disorders” (UNIVERSITY OF LOUISVILLE RESEARCH FOUNDATION, INC., priority 2009, dated 2016)
Read-outs that look alike come from different tables or passages of the source.

Columns and labels:
Jurkat Cells = test: Cell Growth Inhibition, Jurkat cells (trypan blue exclusion); type: cell-based; settings: for IC50: Homo sapiens, Jurkat, 48 h after treatment, 50% of vehicle-treated cell growth
Method: (§1) HeLa (ATCC: CCL-2), A549-human lung carcinoma (ATCC: CCL-185), Lewis lung carcinoma (LLC) (ATCC: CRL-1642), and melanoma cells (ATCC: CRL-11147) were cultured in DMEM (Hyclone) supplemented with 10% fetal bovine serum (Hyclone) and 50 μg/mL gentamicin sulfate (Invitrogen). Jurkat leukemia cells were cultured in RPMI (Hyclone) supplemented with 10% fetal bovine serum and 50 μg/mL gentamicin sulfate. Human mammary epithelial cells were grown in mammary epithelial basal medium (Lonza) supplemented according to manufacturer's protocol. All cell lines were maintained at 5% CO2 at 37° C.
(§2) All cell lines were plated at 1×10^5/mL in the appropriate medium. For suspension cells, the tested compound was added immediately to the medium, whereas the tested compound treatment was initiated the following day for adherent cell lines. For overexpression studies, HeLa cells were transiently transfected with empty vector or vector containing wild type choline kinase twenty-four hours prior to addition of increasing concentrations of CK37. Cells were then collected 48 h after treatment, and cell number and viability were determined by trypan blue exclusion. IC50s were calculated at the tested compound concentration needed for 50% of vehicle-treated cell growth (see Table 4). The data represented are the mean±STD from triplicate measurements from three independent experiments.

HeLa Cells [1] = test: Cell Growth Inhibition, HeLa cells (trypan blue exclusion); type: cell-based; settings: for IC50: Homo sapiens, HeLa, 48 h after treatment, 50% of vehicle-treated cell growth
Method: as §1, §2

HeLa Cells [2] = test: Soft agar colony formation; type: cell-based; settings: 5 μM CK37; 14 days; Control: 2506±158
Method: HeLa cells were plated at a density of 25×10^3 cells per 60-mm plate with 3 mL bottom agar (0.6%) and 2 mL top agar (0.3%) in normal growth medium. Cells were fed every three days by addition of a new layer of top agar which contained increasing concentrations of the tested compound. After 14 days of growth, colonies were counted in random from 1 cm squared sections of each plate.

[3] = Tolerability of intraperitoneal CK37 in C57B1/6 mice; type: in vivo
Method: In order to investigate some possible non-toxic doses of CK37 for use in vivo, we intraperitoneally injected C57B1/6 mice with 0.06, 0.07, and 0.08 mg/g of CK37. […] C57B1/6 mice bearing Lewis Lung Carcinoma xenografts (mean baseline mass=143±14 mg) were given intraperitoneal injections of 0.08 mg/g CK37 daily for nine days. As shown in FIG. 5A-B, CK37 administration suppressed tumor growth by 48% compared to the vehicle control group.

[4] = system: MDA-MB-231 mammary carcinoma cells; test: Cell Growth Inhibition, MDA-MB-231 cells; type: cell-based; settings: FIG. 3B
Method: as §2

[5] = system: various neoplastic cell lines from both solid and hematologic origins; test: Cell Growth Inhibition, various neoplastic cell lines; type: cell-based; settings: all tumor cell lines investigated; FIG. 3A; read-out: IC50 values of cell growth suppression
Method: as §1, §2

[6] = system: primary mammary epithelial cells (HMEC); test: Cell Growth Inhibition, primary mammary epithelial cells; type: cell-based, human; settings: FIG. 3B
Method: as §1, §2

[7] = system: endogenous choline kinase (HeLa cells); test: Choline kinase activity in whole HeLa cells (radiolabeled choline); type: cell-based
Method: For HeLa cell labeling, cells were seeded at 1×10^5 cells/mL and incubated with increasing concentrations of the tested compound for 48 hours. Methyl[^14C]-choline chloride was added 24 hours before cell harvest, and cells were extracted and analyzed as described above. Densitometry units were normalized to total protein levels for each sample.

Lewis Lung Carcinoma = test: Mouse tumors: Lewis lung carcinoma in C57B1/6 mice; type: in vivo; settings: 0.08 mg/g i.p. daily for nine days
Method: Exponentially growing Lewis lung carcinoma cells were collected, washed twice, and resuspended in PBS (1×10^7/mL). C57B1/6 female mice (20 g) were injected s.c. with 0.1 mL of the suspension. Body weight and tumor growth were monitored daily throughout the study. Tumor masses were determined by measurement with Vernier calipers using the formula: mass (mg)=[width^2 (mm)×length (mm)]/2. Mice with established tumors (between 130 and 190 mg) were randomized into vehicle control or the tested compound treated groups. Vehicle control groups received i.p. injections of 50 μL DMSO, whereas treated groups received 0.08 mg/g the tested compound in 50 μL DMSO at the indicated time points. All protocols were approved by the University of Louisville Institutional Animal Care and Use Committee.

[8] = system: choline kinase (HeLa lysates); test: Choline kinase activity assay of HeLa cell lysates; type: biochemical; settings: HeLa cell lysate; FIG. 7
Method: Choline kinase activity was assayed as described previously in Hernandez-Alcoceba et al. “Choline kinase inhibitors as a novel approach for antiproliferative drug design,” Oncogene 1997, 15:2289-2301, the disclosure of which is incorporated herein by this reference. For HeLa cell lysate, equal volume of lysate was incubated in the presence or absence of the tested compound in kinase assay buffer (100 mM Tris-HCl, 100 mM MgCl2, 10 mM ATP, 200 μM choline, and 2 μM methyl[^14C]-choline chloride (50-60 μCi, mmol). Reactions were carried out at 37° C. for one hour and immediately stopped by addition of TCA (Trichloroacetic Acid) to a final concentration of 16%. The TCA soluble fraction was then washed 3× with four volumes of water saturated ethyl ether, and dried under vacuum. Metabolites were separated by thin layer chromatography using 60 Å silica gel plates and a liquid phase consisting of 0.9% NaCl:methanol:ammonium hydroxide (50:70:5; V:V:V). Radioactive images were resolved by PhosphorImager screening and densitometry was performed using Image Quant software.

choline kinase = settings: reported; cited from earlier work
[9] = system: HeLa cell endogenous choline kinase; settings: reported; cited from earlier work
[10] = reported; cited from earlier work
[11] = system: HT-29 human adenocarcinoma cells; settings: reported; cited from earlier work

Row | Structure (SMILES) | IC50 (Jurkat Cells) | IC50 (HeLa Cells [1]) | other results
1 | CCC1(c2ccccc2)NC(=O)N(CC(=O)c2ccc(OC)cc2OC)C1=O (stereo not shown) [A] | > 10 µM | > 25 µM | 
2 | C[C@@]1(c2ccc3ccccc3c2)NC(=O)N(CC(=O)OCC(=O)NCCC#N)C1=O [B] | > 10 µM | > 25 µM | 
3 | CCc1ccc(-c2nnc(SCC(=O)Nc3cc(C)cc(C)c3)[nH]2)cc1 [CK37, N-(3,5-dimethylphenyl)-2-[[5-(4-ethylphenyl)-1H-1,2,4-triazol-3-yl]sulfanyl]acetamide] | 5.4 µM | 4.2 µM | number of soft agar colonies (HeLa Cells [2]): 360±77; clinical signs or symptoms of distress ([3]; 0.06, 0.07, and 0.08 mg/g intraperitoneally): no clinical signs or symptoms of distress; dose limiting toxicity ([3]; mice): > 80 mg/kg; CK37 concentration compared for growth suppression ([4]; MDA-MB-231): 0.5 µM; difference in selectivity against neoplastic versus primary cell growth ([4]; MDA-MB-231 versus HMEC): 20 fold; IC50 [5]: 5 to 10 µM; CK37 concentration compared for growth suppression [6]: 10 µM; inhibition of endogenous choline kinase activity in whole cells ([7]; 10 μM, 48 hours, FIG. 2B): 61.7%±9.7%; decrease in HeLa cell endogenous choline kinase ([7]; about the same concentration as MN58B, somewhat different conditions): 60%; tumor growth suppression compared to the vehicle control group (Lewis Lung Carcinoma): 48%; wet weight of resected tumors at the end of treatment (Lewis Lung Carcinoma; Vehicle: 1109±107 mg, p<0.01): 648 ± 96 mg
4 | COc1ccc(OCC(=O)OC(C)C(=O)Nc2cccc3ccccc23)cc1 (stereo not shown) [CP6] | 9.8 µM | 12.6 µM | Jurkat cell proliferation (Jurkat Cells; FIG. 9): selectively suppresses Jurkat cell proliferation; endogenous choline kinase activity [8]: dose-dependent decrease in endogenous choline kinase activity; HeLa cell proliferation (HeLa Cells [1]; FIG. 8): selectively suppresses HeLa cell proliferation
5 | CSc1ccc(C=CC(=O)OCC(=O)NC(Cc2ccccc2)C(C)=O)cc1 (stereo not shown) [C] | > 10 µM | 15.2 µM | 
6 | CCc1ccc(C(=O)CN2C(=O)NC(CC)(c3ccccc3)C2=O)cc1 (stereo not shown) [E] | > 10 µM | > 25 µM | 
7 | CC(OC(=O)CCC(=O)c1cccs1)C(=O)Nc1cccc2ccccc12 (stereo not shown) [G] | > 10 µM | > 25 µM | 
8 | CCCNC(=O)COC(=O)CN1C(=O)N[C@@](C)(c2ccc(C)cc2)C1=O [H] | > 10 µM | > 25 µM | 
9 | CCC(=O)c1ccc(OCC(=O)OCc2csc(-c3ccc(OC)cc3)n2)cc1 [I] | > 10 µM | > 25 µM | 
10 | COc1cc(C(C)=O)ccc1OCC(=O)NCc1ccc(C)cc1 [J] | > 10 µM | > 25 µM | 
11 | COc1ccccc1CNC(=O)CN1C(=O)NC(C)(c2ccc(C)cc2)C1=O (stereo not shown) [K] | > 10 µM | > 25 µM | 
12 | CN(C)c1cc[n+](Cc2ccc(CCCCc3ccc(C[n+]4ccc(N(C)C)cc4)cc3)cc2)cc1.[Br-].[Br-] [MN58B] |  |  | IC50 (choline kinase): 4.2 µM; inhibition in HeLa cell endogenous choline kinase [9]: 75%; dose limiting toxicity [10]: 5 to 10 mg/kg; IC50 [11]: 0.5 µM
13 | COCCNC(=O)CN1C(=O)NC(C)(c2ccc(C)cc2)C1=O (stereo not shown) [M] | > 10 µM | > 25 µM | 
14 | C=CCn1c(COc2cccc(C)c2)nnc1SCc1ncc(-c2ccccc2)o1 [O] | > 10 µM | > 25 µM | 
15 | COc1ccccc1COC(=O)CN1C(=O)N[C@@](C)(c2ccc(C)cc2)C1=O [P] | > 10 µM | 18.3 µM | 
